Molecular target: T1, vanilloid receptor 1 (VR1/TRPV1 receptor) (Homo sapiens, UniProt Q8NER1)
T1 construct: expressed in transfected cells; host or cells: CHO K1
Assay: Functional testing on the vanilloid receptor 1 (FLIPR Ca2+ influx assay, capsaicin stimulation)
Type: cell-based
Settings: Cap = capsaicin, human being; for Ki: Ki from IC50 by the Cheng-Prusoff equation, read-out: (f) Ki (human being) [nM] Cap; for inhibition at 5 µM: @5 μM compound
Protocol: Furthermore, preference may be given to compounds according to the invention that cause a 50 percent displacement of capsaicin, which is present at a concentration of 100 nM, in a FLIPR assay with CHO K1 cells which were transfected with the human VR1 gene at a concentration of less than 2,000 nM, preferably less than 1,000 nM, particularly preferably less than 300 nM, most particularly preferably less than 100 nM, even more preferably less than 75 nM, additionally preferably less than 50 nM, most preferably less than 10 nM.
In the process, the Ca^2+ influx is quantified in the FLIPR assay with the aid of a Ca^2+-sensitive dye (type Fluo-4, Molecular Probes Europe BV, Leiden, the Netherlands) in a fluorescent imaging plate reader (FLIPR, Molecular Devices, Sunnyvale, USA), as described hereinafter.
I. Functional Testing Carried Out on the Vanilloid Receptor 1 (VR1/TRPV1 Receptor) […]
The number of cells in the suspension is set to 3×10^5 per mL and 150 μL of this suspension are in each case introduced into a recess in the cell culture plates coated as described hereinbefore. In the incubator the plates are left for two to three days at 37° C., 5% by volume of CO2 and 95% relative humidity. Subsequently, the cells are loaded with 2 μM of Fluo-4 and 0.01% by volume of Pluronic F127 (Molecular Probes Europe BV, Leiden, the Netherlands) in HBSS buffer (Hank's buffered saline solution, Gibco Invitrogen GmbH, Karlsruhe, Germany) for 30 min at 37° C., washed 3 times with HBSS buffer and after further incubation for 15 minutes at room temperature used for Ca^2+ measurement in a FLIPR assay. The Ca^2+ dependent fluorescence is in this case measured before and after the addition of substances (λex=488 nm, λem=540 nm). Quantification is carried out by measuring the highest fluorescence intensity (FC, fluorescence counts) over time.
The FLIPR protocol consists of 2 substance additions. First the compounds to be tested (10 μM) are pipetted onto the cells and the Ca^2+ influx is compared with the control (capsaicin 10 μM). This provides the result in % activation based on the Ca^2+ signal after the addition of 10 μM of capsaicin (CP). After 5 minutes' incubation, 100 nM of capsaicin are applied and the Ca^2+ influx is also determined.
Desensitising agonists and antagonists lead to suppression of the Ca^2+ influx. The % inhibition is calculated compared to the maximum achievable inhibition with 10 μM of capsazepine.
Triple analyses (n=3) are carried out and repeated in at least 3 independent experiments (N=4).
Starting from the percentage displacement caused by different concentrations of the compounds to be tested of general formula I, IC50 inhibitory concentrations which cause a 50-percent displacement of capsaicin were calculated. Ki values for the test substances were obtained by conversion by means of the Cheng-Prusoff equation (Cheng, Prusoff; Biochem. Pharmacol. 22, 3099-3108, 1973).
The affinity of the compounds according to the invention for the vanilloid receptor 1 (VR1/TRPV1 receptor) was determined as described hereinbefore (pharmacological method I).

[1] = read-out: inhibition (as a percentage), (f) (human being) Cap

T1 sequence (Q8NER1 whole entry): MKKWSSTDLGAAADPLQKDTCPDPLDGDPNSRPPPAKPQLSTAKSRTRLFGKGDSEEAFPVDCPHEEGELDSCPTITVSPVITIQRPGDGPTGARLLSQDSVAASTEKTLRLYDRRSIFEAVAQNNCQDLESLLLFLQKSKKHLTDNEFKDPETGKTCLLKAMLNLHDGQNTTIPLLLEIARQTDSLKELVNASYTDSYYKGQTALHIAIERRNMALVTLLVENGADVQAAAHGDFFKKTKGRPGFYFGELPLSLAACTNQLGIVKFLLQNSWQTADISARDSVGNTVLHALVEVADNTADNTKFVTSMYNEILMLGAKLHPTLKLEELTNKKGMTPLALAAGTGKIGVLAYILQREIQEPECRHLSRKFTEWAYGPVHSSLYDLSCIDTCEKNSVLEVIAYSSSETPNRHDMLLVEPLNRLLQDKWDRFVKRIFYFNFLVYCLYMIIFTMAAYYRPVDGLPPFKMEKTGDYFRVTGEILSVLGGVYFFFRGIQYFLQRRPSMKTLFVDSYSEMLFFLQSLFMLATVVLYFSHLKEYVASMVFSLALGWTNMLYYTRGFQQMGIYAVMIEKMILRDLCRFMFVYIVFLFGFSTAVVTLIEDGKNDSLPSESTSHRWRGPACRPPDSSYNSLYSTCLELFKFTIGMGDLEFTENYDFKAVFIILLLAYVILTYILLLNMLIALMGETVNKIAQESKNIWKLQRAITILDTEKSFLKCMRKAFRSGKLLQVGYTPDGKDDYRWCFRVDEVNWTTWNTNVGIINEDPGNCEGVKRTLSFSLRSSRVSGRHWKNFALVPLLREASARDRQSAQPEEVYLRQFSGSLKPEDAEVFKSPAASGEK

| Ki [nM] | SMILES | further results |
| --- | --- | --- |
| 13 | CC(C(=O)NCc1ccc(C(F)(F)F)nc1C1CCCC1)c1ccc(CNS(C)(=O)=O)c(F)c1 (stereo not shown) [Example 5, N-((2-cyclopentyl-6-(trifluoromethyl)pyridin-3-yl)methyl)-2-(3-fluoro-4-(methylsulfonamidomethyl)phenyl)propanamide] |  |
| 41 | CC(C(=O)NCc1ccc(C(F)(F)F)nc1-c1cccs1)c1ccc(CNS(C)(=O)=O)c(F)c1 (stereo not shown) [Example 47, 2-(3-fluoro-4-(methylsulfonamidomethyl)phenyl)-N-((2-(thiophen-2-yl)-6-(trifluoromethyl)pyridin-3-yl)methyl)propanamide] |  |
| 14 | CCCCCc1nc(C(F)(F)F)ccc1CNC(=O)C(C)c1ccc(CNS(C)(=O)=O)c(F)c1 (stereo not shown) [Example 1, 2-(3-fluoro-4-(methylsulfonamidomethyl)phenyl)-N-((2-pentyl-6-(trifluoromethyl)pyridin-3-yl)methyl)propanamide] |  |
| 46 | CC(C(=O)NCc1ccc(C(F)(F)F)nc1-c1ccoc1)c1ccc(CNS(C)(=O)=O)c(F)c1 (stereo not shown) [Example 46, 2-(3-fluoro-4-(methylsulfonamidomethyl)phenyl)-N-((2-(furan-3-yl)-6-(trifluoromethyl)pyridin-3-yl)methyl)propanamide] |  |
| 37 | CC(C)Oc1nc(C(F)(F)F)ccc1CNC(=O)C(C)c1ccc(CNS(C)(=O)=O)c(F)c1 (stereo not shown) [Example 15, 2-(3-fluoro-4-(methylsulfonamidomethyl)phenyl)-N-((2-isopropoxy-6-(trifluoromethyl)pyridin-3-yl)methyl)propanamide] |  |
| 12 | CC(C(=O)NCc1ccc(C(F)(F)F)nc1/C=C/C(C)(C)C)c1ccc(CNS(C)(=O)=O)c(F)c1 (stereo not shown) [Example 4, (E)-N-((2-(3,3-dimethylbut-1-enyl)-6-(trifluoromethyl)pyridin-3-yl)methyl)-2-(3-fluoro-4-(methylsulfonamidomethyl)phenyl)propanamide] |  |
| 59 | CC(C(=O)NCc1ccc(C(F)(F)F)nc1-c1ccc2c(c1)OCO2)c1ccc(CNS(C)(=O)=O)c(F)c1 (stereo not shown) [Example 45, N-((2-(benzo[d][1,3]dioxol-5-yl)-6-(trifluoromethyl)pyridin-3-yl)methyl)-2-(3-fluoro-4-(methylsulfonamidomethyl)phenyl)propanamide] |  |
| 83 | CC(C(=O)NCc1ccc(C(F)(F)F)nc1-c1ccc2cc[nH]c2c1)c1ccc(CNS(C)(=O)=O)c(F)c1 (stereo not shown) [Example 44, N-((2-(1H-indol-6-yl)-6-(trifluoromethyl)pyridin-3-yl)methyl)-2-(3-fluoro-4-(methylsulfonamidomethyl)phenyl)propanamide] |  |
| 15 | CC(C(=O)NCc1ccc(C(F)(F)F)nc1C1CCCCC1)c1ccc(CNS(C)(=O)=O)c(F)c1 (stereo not shown) [Example 6, N-((2-cyclohexyl-6-(trifluoromethyl)pyridin-3-yl)methyl)-2-(3-fluoro-4-(methylsulfonamidomethyl)phenyl)propanamide] |  |

Second part, the compound before the results:

| SMILES | Ki [nM] | further results |
| --- | --- | --- |
| NS(=O)(=O)NCc1ccc(NC(=O)NCc2ccc(C(F)(F)F)nc2OC2CCCC2)cc1F [Example 38, 1-{3-fluoro-4-[(sulfamoylamino)methyl]phenyl}-3-{[2-cyclopentyloxy-6-(trifluoromethyl)pyridin-3-yl]methyl}urea] | 5 |  |
| CCCCOc1nc(C(F)(F)F)ccc1CNC(=O)Nc1ccc(CNS(N)(=O)=O)c(F)c1 [Example 37, 1-{3-fluoro-4-[(sulfamoylamino)methyl]phenyl}-3-{[2-butoxy-6-(trifluoromethyl)pyridin-3-yl]methyl}urea] | 7 |  |
| CCCCOc1nc(C(F)(F)F)ccc1CNC(=O)C(C)c1ccc(CNS(=O)(=O)CC)c(F)c1 (stereo not shown) [Example 31, N-((2-butoxy-6-(trifluoromethyl)pyridin-3-yl)methyl)-2-(4-(ethylsulfonamidomethyl)-3-fluorophenyl)propanamide] | 15 |  |
| CC(C(=O)NCc1ccc(C(F)(F)F)nc1OC1CCCC1)c1ccc(CNS(C)(=O)=O)c(F)c1 (stereo not shown) [Example 20, N-((2-(cyclopentyloxy)-6-(trifluoromethyl)pyridin-3-yl)methyl)-2-(3-fluoro-4-(methylsulfonamidomethyl)phenyl)propanamide] | 13 |  |
| COCCOCc1nc(C(F)(F)F)ccc1CNC(=O)C(C)c1ccc(CNS(C)(=O)=O)c(F)c1 (stereo not shown) [Example 3, 2-(3-fluoro-4-(methylsulfonamidomethyl)phenyl)-N-((2-((2-methoxyethoxy)methyl)-6-(trifluoromethyl)pyridin-3-yl)methyl)propanamide] |  | inhibition at 5 µM [1]: 13% |
| COCCCc1nc(C(F)(F)F)ccc1CNC(=O)C(C)c1ccc(CNS(C)(=O)=O)c(F)c1 (stereo not shown) [Example 2, 2-(3-fluoro-4-(methylsulfonamidomethyl)phenyl)-N-((2-(3-methoxypropyl)-6-(trifluoromethyl)pyridin-3-yl)methyl)propanamide] |  | inhibition at 5 µM [1]: 18% |
| CCCCOc1nc(C(F)(F)F)ccc1CNC(=O)C(C)c1ccc(CNS(C)(=O)=O)c(OC)c1 (stereo not shown) [Example 29, N-((2-butoxy-6-(trifluoromethyl)pyridin-3-yl)methyl)-2-(3-methoxy-4-(methylsulfonamidomethyl)phenyl)propanamide] | 61 |  |
| CC(C(=O)NCc1ccc(C(F)(F)F)nc1SC1CCCCC1)c1ccc(CNS(C)(=O)=O)c(F)c1 (stereo not shown) [Example 43, N-((2-(cyclohexylthio)-6-(trifluoromethyl)pyridin-3-yl)methyl)-2-(3-fluoro-4-(methylsulfonamidomethyl)phenyl)propanamide] | 44 |  |
| CC(C)Oc1nc(C(F)(F)F)ccc1CNC(=O)Nc1ccc(CNS(N)(=O)=O)c(F)c1 [Example 36, 1-{3-fluoro-4-[(sulfamoylamino)methyl]phenyl}-3-{[2-isopropoxy-6-(trifluoromethyl)pyridin-3-yl]methyl}urea] | 6 |  |
| CCOc1nc(C(F)(F)F)ccc1CNC(=O)Nc1ccc(CNS(N)(=O)=O)c(F)c1 [Example 35, 1-{3-fluoro-4-[(sulfamoylamino)methyl]phenyl}-3-{[2-ethoxy-6-(trifluoromethyl)pyridin-3-yl]methyl}urea] | 16 |  |
| CCCCOc1nc(C(F)(F)F)ccc1CNC(=O)C(C)c1ccc(CNS(C)(=O)=O)c(F)c1 (stereo not shown) [Example 16, N-((2-butoxy-6-(trifluoromethyl)pyridin-3-yl)methyl)-2-(3-fluoro-4-(methylsulfonamidomethyl)phenyl)propanamide] | 8 |  |
| CC(C)Oc1nc(C(F)(F)F)ccc1CNC(=O)Nc1ccc(CNS(N)(=O)=O)cc1 [Example 32, 1-{[2-isopropoxy-6-(trifluoromethyl)pyridin-3-yl]methyl}-3-{4-[(sulfamoylamino)methyl]phenyl}urea] | 10 |  |
| CC(C(=O)NCc1ccc(C(F)(F)F)nc1OC1CCOCC1)c1ccc(CNS(C)(=O)=O)c(F)c1 (stereo not shown) [Example 25, 2-(3-fluoro-4-(methylsulfonamidomethyl)phenyl)-N-((2-(tetrahydro-2H-pyran-4-yloxy)-6-(trifluoromethyl)pyridin-3-yl)methyl)propanamide] | 111 |  |
| NS(=O)(=O)NCc1ccc(NC(=O)NCc2ccc(C(F)(F)F)nc2OC2CCCC2)cc1 [Example 34, 1-{[2-cyclopentyloxy-6-(trifluoromethyl)pyridin-3-yl]methyl}-3-{4-[(sulfamoylamino)methyl]phenyl}urea] | 1 |  |
| CCCCOc1nc(C(F)(F)F)ccc1CNC(=O)Nc1ccc(CNS(N)(=O)=O)cc1 [Example 33, 1-{[2-butoxy-6-(trifluoromethyl)pyridin-3-yl]methyl}-3-{4-[(sulfamoylamino)methyl]phenyl}urea] | 8 |  |
| COc1cc(C(C)C(=O)NCc2ccc(C(F)(F)F)nc2OC(C)C)ccc1CNS(C)(=O)=O (stereo not shown) [Example 27, N-((2-isopropoxy-6-(trifluoromethyl)pyridin-3-yl)methyl)-2-(3-methoxy-4-(methylsulfonamidomethyl)phenyl)propanamide] |  | inhibition at 1 µM (@1 μM compound, read-out: inhibition (as a percentage), (f) (human being) Cap): 15% |

Source: patent US20130079373A1, “Substituted Methanesulfonamide Derivatives as Vanilloid Receptor Ligands” (priority 2011, published 2013)
